# Experimental data taken from the Kinase Knowledgebase extract (Sharma et al. 2016).
# Target: PIK3CD (Human) (UniProt O00329)
# Experiment: Assessment of PIK3CD Kinase Activity
# Sequence of PIK3CD (Human) (O00329 whole entry, looked up): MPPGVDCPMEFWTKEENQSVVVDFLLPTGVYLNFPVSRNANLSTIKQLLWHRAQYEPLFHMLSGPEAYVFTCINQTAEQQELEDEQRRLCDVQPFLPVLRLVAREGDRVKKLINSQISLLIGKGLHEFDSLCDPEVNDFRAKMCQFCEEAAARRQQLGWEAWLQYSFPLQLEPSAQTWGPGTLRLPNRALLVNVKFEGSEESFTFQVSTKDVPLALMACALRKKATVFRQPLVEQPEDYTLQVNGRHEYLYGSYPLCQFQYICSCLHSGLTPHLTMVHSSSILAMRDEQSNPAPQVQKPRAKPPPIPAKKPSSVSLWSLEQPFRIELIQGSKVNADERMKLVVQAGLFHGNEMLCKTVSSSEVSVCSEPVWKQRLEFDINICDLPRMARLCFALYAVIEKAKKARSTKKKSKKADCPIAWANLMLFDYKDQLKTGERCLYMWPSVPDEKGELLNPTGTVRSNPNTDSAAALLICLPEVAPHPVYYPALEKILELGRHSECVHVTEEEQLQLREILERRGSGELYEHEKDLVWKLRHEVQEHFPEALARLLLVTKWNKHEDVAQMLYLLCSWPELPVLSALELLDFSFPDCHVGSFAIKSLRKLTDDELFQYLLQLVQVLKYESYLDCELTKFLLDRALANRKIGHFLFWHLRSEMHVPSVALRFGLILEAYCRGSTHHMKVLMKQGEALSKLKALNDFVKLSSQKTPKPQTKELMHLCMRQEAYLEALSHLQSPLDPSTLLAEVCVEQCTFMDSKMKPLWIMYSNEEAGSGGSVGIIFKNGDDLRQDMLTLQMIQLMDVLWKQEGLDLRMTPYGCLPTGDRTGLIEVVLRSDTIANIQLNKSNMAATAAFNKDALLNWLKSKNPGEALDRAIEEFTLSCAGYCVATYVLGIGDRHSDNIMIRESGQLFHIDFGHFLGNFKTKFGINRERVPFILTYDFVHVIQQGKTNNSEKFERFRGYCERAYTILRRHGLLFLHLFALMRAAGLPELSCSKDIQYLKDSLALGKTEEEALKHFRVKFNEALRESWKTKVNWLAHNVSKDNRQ
row,IC50 [nM],SMILES
1,≤ 100,c1cc(-c2nc(N3CCOCC3)c3sc(CN4CCN(c5nccs5)CC4)cc3n2)c2cn[nH]c2c1
2,≤ 100,CS(=O)(=O)C1CCN(Cc2cc3nc(-c4cccc5[nH]ncc45)nc(N4CCOCC4)c3s2)CC1
3,≤ 100,c1cc(-c2nc(N3CCOCC3)c3sc(CN4CCN(Cc5nccs5)CC4)cc3n2)c2cn[nH]c2c1
4,≤ 100,CS(=O)(=O)N1CCN(Cc2cc3nc(-c4cccc5[nH]ncc45)nc(N4CCOCC4)c3s2)CC1CO (configuration not stated)
5,≤ 100,c1cc(-c2nc(N3CCOCC3)c3sc(CN4CCOCC4)cc3n2)c2cn[nH]c2c1
6,≤ 100,OCC1CCCN(Cc2cc3nc(-c4cccc5[nH]ncc45)nc(N4CCOCC4)c3s2)C1 (configuration not stated)
7,≤ 100,CC(C)(O)C1CCN(Cc2cc3nc(-c4cccc5[nH]ncc45)nc(N4CCOCC4)c3s2)CC1
8,≤ 100,OCCC1CCN(Cc2cc3nc(-c4cccc5[nH]ncc45)nc(N4CCOCC4)c3s2)CC1
9,≤ 100,OCC1CCN(Cc2cc3nc(-c4cccc5[nH]ncc45)nc(N4CCOCC4)c3s2)CC1
10,≤ 100,OC1(c2nccs2)CCN(Cc2cc3nc(-c4cccc5[nH]ncc45)nc(N4CCOCC4)c3s2)CC1
11,≤ 100,CC1CCCN(Cc2cc3nc(-c4cccc5[nH]ncc45)nc(N4CCOCC4)c3s2)C1 (configuration not stated)
12,≤ 100,CN1CCN(Cc2cc3nc(-c4cccc5nn(C)cc45)nc(N4CCOCC4)c3s2)CC1
13,≤ 100,C[C@@H]1CN(Cc2cc3nc(-c4cccc5[nH]ncc45)nc(N4CCOCC4)c3s2)C[C@H](C)N1Cc1nccs1
14,≤ 100,COCC1CCN(Cc2cc3nc(-c4cccc5[nH]ncc45)nc(N4CCOCC4)c3s2)CC1
15,≤ 100,c1ccc(CN2CCN(Cc3cc4nc(-c5cccc6[nH]ncc56)nc(N5CCOCC5)c4s3)CC2)nc1
16,≤ 100,COCCN(C)CC1CCN(Cc2cc3nc(-c4cccc5[nH]ncc45)nc(N4CCOCC4)c3s2)CC1
17,≤ 100,COCC1(N2CCN(Cc3cc4nc(-c5cccc6[nH]ncc56)nc(N5CCOCC5)c4s3)CC2)CC1
18,≤ 100,c1cc(-c2nc(N3CCOCC3)c3sc(CN4CCC(N5CCCCC5)CC4)cc3n2)c2cn[nH]c2c1
19,≤ 100,CN1CCN(Cc2cc3nc(-c4cccc5[nH]ccc45)nc(N4CCOCC4)c3s2)CC1
20,≤ 100,CNC(=O)C1CCN(Cc2cc3nc(-c4cccc5[nH]ncc45)nc(N4CCOCC4)c3s2)CC1
21,≤ 100,c1cc(-c2nc(N3CCOCC3)c3sc(CN4CCC(Cn5ccnc5)CC4)cc3n2)c2cn[nH]c2c1

row,IC50 [nM],SMILES
1,≤ 100,CNC(=O)[C@H]1CCCN(Cc2cc3nc(-c4cccc5[nH]ncc45)nc(N4CCOCC4)c3s2)C1
2,≤ 100,OCCN1CCN(Cc2cc3nc(-c4cccc5[nH]ncc45)nc(N4CCOCC4)c3s2)CC1
3,≤ 100,O=S(=O)(CCCN1CCOCC1)N1CCN(Cc2cc3nc(-c4cccc5[nH]ncc45)nc(N4CCOCC4)c3s2)CC1
4,≤ 100,O=C(N1CCOCC1)N1CCN(Cc2cc3nc(-c4cccc5[nH]ncc45)nc(N4CCOCC4)c3s2)CC1
5,≤ 100,CNC(=O)C(C)(C)N1CCN(Cc2cc3nc(-c4cccc5[nH]ncc45)nc(N4CCOCC4)c3s2)CC1
6,≤ 100,[O-][n+]1ccccc1CN1CCN(Cc2cc3nc(-c4cccc5[nH]ncc45)nc(N4CCOCC4)c3s2)CC1
7,≤ 100,COCCN(CC1CC1)C1CCN(Cc2cc3nc(-c4cccc5[nH]ncc45)nc(N4CCOCC4)c3s2)CC1
8,≤ 100,COCCN(Cc1nccs1)C1CCN(Cc2cc3nc(-c4cccc5[nH]ncc45)nc(N4CCOCC4)c3s2)CC1
9,≤ 100,COCCN1[C@H](C)CN(Cc2cc3nc(-c4cccc5[nH]ncc45)nc(N4CCOCC4)c3s2)C[C@@H]1C
10,≤ 100,CN(C)CC1CCN(Cc2cc3nc(-c4cccc5[nH]ncc45)nc(N4CCOCC4)c3s2)CC1
11,≤ 100,CS(=O)(=O)N1CCN(Cc2cc3nc(-c4cccc5[nH]ccc45)nc(N4CCOCC4)c3s2)CC1
12,≤ 100,COCC1CN(Cc2cc3nc(-c4cccc5[nH]ncc45)nc(N4CCOCC4)c3s2)CCN1S(C)(=O)=O (configuration not stated)
13,≤ 100,CC(C)(C(N)=O)N1CCN(Cc2cc3nc(-c4cccc5[nH]ncc45)nc(N4CCOCC4)c3s2)CC1
14,≤ 100,CN1CCN(Cc2cc3nc(-c4cccc5c4cnn5C)nc(N4CCOCC4)c3s2)CC1
15,≤ 100,CN(C)C(=O)N1CCN(Cc2cc3nc(-c4cccc5[nH]ccc45)nc(N4CCOCC4)c3s2)CC1
16,≤ 100,COCCN(C)C1CCN(Cc2cc3nc(-c4cccc5[nH]ncc45)nc(N4CCOCC4)c3s2)CC1
17,≤ 100,OC(COc1ccccc1)CN1CCN(Cc2cc3nc(-c4cccc5[nH]ncc45)nc(N4CCOCC4)c3s2)CC1 (configuration not stated)
18,≤ 100,CN(CCCS(C)(=O)=O)C1CCN(Cc2cc3nc(-c4cccc5[nH]ncc45)nc(N4CCOCC4)c3s2)CC1
19,≤ 100,c1ccc(NC2CCN(Cc3cc4nc(-c5cccc6[nH]ncc56)nc(N5CCOCC5)c4s3)CC2)nc1
20,≤ 100,c1cncc(CN2CCN(Cc3cc4nc(-c5cccc6[nH]ncc56)nc(N5CCOCC5)c4s3)CC2)c1
21,≤ 100,c1ccc(OC2CCN(Cc3cc4nc(-c5cccc6[nH]ncc56)nc(N5CCOCC5)c4s3)CC2)nc1

row,IC50 [nM],SMILES
1,≤ 100,COCCOC1CCN(Cc2cc3nc(-c4cccc5[nH]ncc45)nc(N4CCOCC4)c3s2)CC1
2,≤ 100,Cc1cccc(CN2CCN(Cc3cc4nc(-c5cccc6[nH]ncc56)nc(N5CCOCC5)c4s3)CC2)n1
3,≤ 100,FC(F)(F)CN1CCN(Cc2cc3nc(-c4cccc5[nH]ncc45)nc(N4CCOCC4)c3s2)CC1
4,≤ 100,COCCN(CC(F)(F)F)C1CCN(Cc2cc3nc(-c4cccc5[nH]ncc45)nc(N4CCOCC4)c3s2)CC1
5,≤ 100,COCCN(C)C1CCCN(Cc2cc3nc(-c4cccc5[nH]ncc45)nc(N4CCOCC4)c3s2)C1 (configuration not stated)
6,≤ 100,NC(=O)C1CCN(Cc2cc3nc(-c4cccc5[nH]ncc45)nc(N4CCOCC4)c3s2)CC1
7,≤ 100,[O-][n+]1cccc(CN2CCN(Cc3cc4nc(-c5cccc6[nH]ncc56)nc(N5CCOCC5)c4s3)CC2)c1
8,≤ 100,CN(C)S(=O)(=O)N1CCN(Cc2cc3nc(-c4cccc5[nH]ncc45)nc(N4CCOCC4)c3s2)CC1
9,≤ 100,CN(C)C1CCN(Cc2cc3nc(-c4cccc5[nH]ccc45)nc(N4CCOCC4)c3s2)CC1
10,≤ 100,c1ccc(CC2CCN(Cc3cc4nc(-c5cccc6[nH]ncc56)nc(N5CCOCC5)c4s3)CC2)nc1
11,≤ 100,c1cnc(N2CCN(Cc3cc4nc(-c5cccc6[nH]ncc56)nc(N5CCOCC5)c4s3)CC2)nc1
12,≤ 100,O=C1CN(Cc2cc3nc(-c4cccc5[nH]ncc45)nc(N4CCOCC4)c3s2)CCN1CCO
13,≤ 100,COCCN(C)C(=O)N1CCN(Cc2cc3nc(-c4cccc5[nH]ccc45)nc(N4CCOCC4)c3s2)CC1
14,≤ 100,O=C(N1CCOCC1)N1CCN(Cc2cc3nc(-c4cccc5[nH]ccc45)nc(N4CCOCC4)c3s2)CC1
15,≤ 100,c1cc(-c2nc(N3CCOCC3)c3sc(CN4CCNCC4)cc3n2)c2cc[nH]c2c1
16,≤ 100,COCCN1CCN(Cc2cc3nc(-c4cccc5[nH]ncc45)nc(N4CCOCC4)c3s2)CC1
17,≤ 100,CN(C)C(=O)N1CCN(Cc2cc3nc(-c4cccc5[nH]ncc45)nc(N4CCOCC4)c3s2)CC1
18,≤ 100,c1cc(-c2nc(N3CCOCC3)c3sc(CN4CCN(Cc5cnc[nH]5)CC4)cc3n2)c2cn[nH]c2c1
19,≤ 100,COCCC1CCN(Cc2cc3nc(-c4cccc5[nH]ncc45)nc(N4CCOCC4)c3s2)CC1
20,≤ 100,COCCCS(=O)(=O)C1CCN(Cc2cc3nc(-c4cccc5[nH]ncc45)nc(N4CCOCC4)c3s2)CC1
